What was measured:
MMP-3 = molecular target: T1, MMP-3 (Homo sapiens, UniProt P08254); test: Primary Thiopeptilide MMP-3 Inhibition Assay; format: biochemical; conditions: pH 6.5; 13 nM stromelysin; x (n) = average of n determinations; read-out: MMP-3 Thiopep. IC50
T1 construct: Truncated Prostromelysin-257 was expressed in a soluble form in E.coli; made in house; host or cells: E. coli

MMP-9 = molecular target: T2, MMP-9 (Homo sapiens, UniProt P14780); test: Thiopeptilide MMP-9 Inhibition Assay; format: biochemical; conditions: for IC50: pH 6.5, x (n) = average of n determinations, read-out: MMP-9: Thiopep. IC50; for inhibition at 5 µM: read-out: MMP-9: Thiopep. % inhibition
T2 construct: from tissue; host or cells: human polymorphonuclear leukocytes (PMN) from whole blood (New York Blood Center), PMA-stimulated supernatant
T2 sequence (P14780 107-707 limits assumed): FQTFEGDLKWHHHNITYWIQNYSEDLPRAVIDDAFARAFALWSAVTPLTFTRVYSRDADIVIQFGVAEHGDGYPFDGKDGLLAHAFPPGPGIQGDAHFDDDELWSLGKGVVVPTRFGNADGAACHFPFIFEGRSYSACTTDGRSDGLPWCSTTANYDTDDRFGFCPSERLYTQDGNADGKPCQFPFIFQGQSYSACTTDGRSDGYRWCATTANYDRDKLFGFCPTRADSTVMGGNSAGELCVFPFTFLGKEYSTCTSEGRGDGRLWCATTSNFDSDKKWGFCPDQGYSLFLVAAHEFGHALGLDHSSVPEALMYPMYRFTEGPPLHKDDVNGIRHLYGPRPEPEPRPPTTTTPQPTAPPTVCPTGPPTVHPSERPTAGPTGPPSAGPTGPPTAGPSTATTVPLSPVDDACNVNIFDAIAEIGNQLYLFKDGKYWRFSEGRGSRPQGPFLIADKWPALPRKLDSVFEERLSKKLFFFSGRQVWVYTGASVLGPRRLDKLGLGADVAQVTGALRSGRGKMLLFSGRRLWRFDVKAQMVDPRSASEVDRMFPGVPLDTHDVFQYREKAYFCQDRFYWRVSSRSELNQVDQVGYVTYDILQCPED

T1 sequence (P08254 100-274 limits assumed): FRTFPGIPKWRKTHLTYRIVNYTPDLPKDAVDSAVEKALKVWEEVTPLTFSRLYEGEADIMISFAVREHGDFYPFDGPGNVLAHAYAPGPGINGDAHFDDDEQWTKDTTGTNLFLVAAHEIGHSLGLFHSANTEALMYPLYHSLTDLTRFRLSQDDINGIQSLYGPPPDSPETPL

| SMILES | IC50 (MMP-3) [nM] | IC50 (MMP-9) [nM] | inhibition at 5 µM (MMP-9) [%] |
| --- | --- | --- | --- |
| O=C(CC(CC#Cc1ccccc1)C(=O)O)c1ccc(-c2ccc(Cl)cc2)cc1 (stereo not drawn) [Example 189, [1,1'-Biphenyl]-4-butanoic acid, 4'-chloro-γ-oxo-α-(3-phenyl-2-propynyl)-] | 530 | 600 |  |
| CC(=O)SCC(CC(=O)c1ccc(-c2ccc(Cl)cc2)cc1)C(=O)O (stereo not drawn) [Example 200, [1,1'-Biphenyl]-4-butanoic acid, α-[(acetylthio)methyl]-4'-chloro-γ-oxo-] | 640 | 2300 |  |
| COc1ccc(CSCC(CC(=O)c2ccc(-c3ccc(Cl)cc3)cc2)C(=O)O)cc1 (stereo not drawn) [Example 201, [1,1'-Biphenyl]-4-butanoic acid, 4'-chloro-α-[[[(4-methoxyphenyl)methyl]thio]methyl]-γ-oxo-] | 340 | 800 |  |
| COc1ccc(SCC(CC(=O)c2ccc(-c3ccc(Cl)cc3)cc2)C(=O)O)cc1 (stereo not drawn) [Example 206, [1,1'-Biphenyl]-4-butanoic acid, 4'-chloro-α-[[(4-methoxyphenyl)thio]methyl]-γ-oxo-] | 950 | 417 |  |
| O=C(CC(CSc1ccc(Cl)cc1)C(=O)O)c1ccc(-c2ccc(Cl)cc2)cc1 (stereo not drawn) [Example 209, [1,1'-Biphenyl]-4-butanoic acid, 4'-chloro-α-[[(4-chlorophenyl)thio]methyl]-γ-oxo-] | 340 | 390 |  |
| O=C(CC(CSc1ccc(Br)cc1)C(=O)O)c1ccc(-c2ccc(Cl)cc2)cc1 (stereo not drawn) [Example 210, [1,1'-Biphenyl]-4-butanoic acid, α-[[(4-bromophenyl)thio]methyl]-4'-chloroγ-oxo-] | 500 | 205 |  |
| Cc1ccc(SCC(CC(=O)c2ccc(-c3ccc(Cl)cc3)cc2)C(=O)O)cc1 (stereo not drawn) [Example 211, [1,1'-Biphenyl]-4-butanoic acid, 4'-chloro-α-[[(4-methylphenyl)thio]methyl]-γ-oxo-] | 440 | 280 |  |
| CCc1ccc(SCC(CC(=O)c2ccc(-c3ccc(Cl)cc3)cc2)C(=O)O)cc1 (stereo not drawn) [Example 212, [1,1'-Biphenyl]-4-butanoic acid, 4'-chloro-α-[[(4-ethylphenyl)thio]methyl]-γ-oxo-] | 650 | 390 |  |
| CC(C)(C)c1ccc(SCC(CC(=O)c2ccc(-c3ccc(Cl)cc3)cc2)C(=O)O)cc1 (stereo not drawn) [Example 213, [1,1'-Biphenyl]-4-butanoic acid, 4'-chloro-α-[[(4-(1,1-dimethylethyl)phenyl]thio]methyl]-γ-oxo-] | 2500 |  | 41 |
| COc1ccc(SCC(CC(=O)c2ccc(-c3ccc(Cl)cc3)cc2)C(=O)O)cc1OC (stereo not drawn) [Example 215, [1,1'-Biphenyl]-4-butanoic acid, 4'-chloro-α-[[(3,4-dimethoxyphenyl)thio]methyl]-γ-oxo-] | 1300 | 1200 |  |
| O=C(CC(CSc1ccc(Cl)c(Cl)c1)C(=O)O)c1ccc(-c2ccc(Cl)cc2)cc1 (stereo not drawn) [Example 216, [1,1'-Biphenyl]-4-butanoic acid, 4'-chloro-α-[[(3,4-dichlorophenyl)thio]methyl]-γ-oxo-] | 770 | 590 |  |
| O=C(CC(CSc1ccncc1)C(=O)O)c1ccc(-c2ccc(Cl)cc2)cc1 (stereo not drawn) [Example 222, [1,1'-Biphenyl]-4-butanoic acid, 4'-chloro-γ-oxo-α-[(4-pyridinylthio)methyl]-] | 610 | 1800 |  |
| CC(=O)Nc1ccc(SCC(CC(=O)c2ccc(-c3ccc(Cl)cc3)cc2)C(=O)O)cc1 (stereo not drawn) [Example 223, [1,1'-Biphenyl]-4-butanoic acid, α-[[[4-(acetylamino)phenyl]thio]methyl]-4'-chloro-γ-oxo-] | 930 | 580 |  |
| O=C(CC(CSc1ccc([N+](=O)[O-])cc1)C(=O)O)c1ccc(-c2ccc(Cl)cc2)cc1 (stereo not drawn) [Example 224, [1,1'-Biphenyl]-4-butanoic acid, 4'-chloro-α[[(4-nitrophenyl)thio]methyl]-γ-oxo-] | 680 | 550 |  |
| O=C(CC(CSc1ccc2ccccc2c1)C(=O)O)c1ccc(-c2ccc(Cl)cc2)cc1 (stereo not drawn) [Example 226, [1,1'-Biphenyl]-4-butanoic acid, 4'-chloro-α-[(2-naphthalenylthio)methyl]-γ-oxo-] | 720 | 255 |  |
| O=C(CC(CSc1cccc(Br)c1)C(=O)O)c1ccc(-c2ccc(Cl)cc2)cc1 (stereo not drawn) [Example 228, [1,1'-Biphenyl]-4-butanoic acid, α-[[(3-bromophenyl)thio]methyl]-4'-chloro-γ-oxo-] | 360 | 800 |  |

Now those with a lower IC50 (MMP-3), led by results:

| IC50 (MMP-3) [nM] | IC50 (MMP-9) [nM] | inhibition at 5 µM (MMP-9) [%] | SMILES |
| --- | --- | --- | --- |
| 330 |  | 62 | COCCOCC(CC(=O)c1ccc(-c2ccc(Cl)cc2)cc1)C(=O)O (stereo not shown) [Example 191, [1,1'-Biphenyl]-4-butanoic acid, 4'-chloro-=-[(2-methoxyethoxy)methyl]-γ-oxo-] |
| 310 | 550 |  | O=C(O)CCc1ccc(SCC(CC(=O)c2ccc(-c3ccc(Cl)cc3)cc2)C(=O)O)cc1 (stereo not drawn) [Example 225, [1,1'-Biphenyl]-4-butanoic acid, α-[[[4-(2-carboxyethyl)phenyl]thio]methyl]-4'-chloro--γ-oxo-] |
| 300 | 900 |  | COc1ccccc1SCC(CC(=O)c1ccc(-c2ccc(Cl)cc2)cc1)C(=O)O (stereo not drawn) [Example 229, [1,1'-Biphenyl]-4-butanoic acid, 4'-chloro-α-[[(2-methoxyphenyl)thio]methyl]-γ-oxo-] |
| 260 | 600 |  | O=C(CC(CSc1ccccc1Br)C(=O)O)c1ccc(-c2ccc(Cl)cc2)cc1 (stereo not drawn) [Example 219, [1,1'-Biphenyl]-4-butanoic acid, 4'-chloro-α-[[(2-bromophenyl)thio]methyl]-4'-chloro-γ-oxo-] |
| 250 | 500 |  | O=C(CC(CSC(=O)c1ccccc1)C(=O)O)c1ccc(-c2ccc(Cl)cc2)cc1 (stereo not drawn) [Example 202, [1,1'-Biphenyl]-4-butanoic acid, α-[(benzoylthio)methyl]-4'-chloro-γ-oxo-] |
| 247 | 1200 |  | O=C(CC(CSCc1ccccc1)C(=O)O)c1ccc(-c2ccc(Cl)cc2)cc1 (stereo not drawn) [Example 203, [1,1'-Biphenyl]-4-butanoic acid, 4'-chloro-γ-oxo-α-[[(phenylmethyl)thio]methyl]-] |
| 240 | 2400 |  | CC(C)c1ccccc1SCC(CC(=O)c1ccc(-c2ccc(Cl)cc2)cc1)C(=O)O (stereo not drawn) [Example 221, [1,1'-Biphenyl]-4-butanoic acid, 4'-chloro-α-[[[2-(1-methylethyl)phenyl]thio]methyl]-γ-oxo-] |
| 227 | 215 |  | O=C(CC(CCOCc1ccccc1)C(=O)O)c1ccc(-c2ccc(Cl)cc2)cc1 (stereo not drawn) [Example 190, [1,1'-Biphenyl]-4-butanoic acid, 4'-chloro-γ-oxo-α-[2-(phenylmethoxy)ethyl]-] |
| 220 | 360 |  | O=C(CC(CSc1cccc2ccccc12)C(=O)O)c1ccc(-c2ccc(Cl)cc2)cc1 (stereo not drawn) [Example 227, [1,1'-Biphenyl]-4-butanoic acid, 4'-chloro-α-[(1-naphthalenylthio)methyl]-γ-oxo-] |
| 213 | 215 |  | O=C(CC(CSc1ccc(O)cc1)C(=O)O)c1ccc(-c2ccc(Cl)cc2)cc1 (stereo not drawn) [Example 204, [1,1'-Biphenyl]-4-butanoic acid, 4'-chloro-α-[[(4-hydroxyphenyl)thio]methyl]-γ-oxo-] |
| 190 | 950 |  | CCc1ccccc1SCC(CC(=O)c1ccc(-c2ccc(Cl)cc2)cc1)C(=O)O (stereo not drawn) [Example 220, [1,1'-Biphenyl]-4-butanoic acid, 4'-chloro-α-[[(2-ethylphenyl)thio]methyl]-γ-oxo-] |
| 180 | 290 |  | O=C(CC(CSCCCc1ccccc1)C(=O)O)c1ccc(-c2ccc(Cl)cc2)cc1 (stereo not drawn) [Example 207, [1,1'-Biphenyl]-4-butanoic acid, 4'-chloro-γ-oxo-α-[[(3-phenylpropyl)thio]methyl]-] |
| 170 | 200 |  | O=C(CC(CSc1cccs1)C(=O)O)c1ccc(-c2ccc(Cl)cc2)cc1 (stereo not drawn) [Example 199, [1,1'-Biphenyl]-4-butanoic acid, 4'-chloro-γ-oxo-α-[(2-thienylthio)methyl]-] |
| 170 | 2200 |  | O=C(CC(CSC1CCCCC1)C(=O)O)c1ccc(-c2ccc(Cl)cc2)cc1 (stereo not drawn) [Example 214, [1,1'-Biphenyl]-4-butanoic acid, 4'-chloro-α-[(cyclohexylthio)methyl]-γ-oxo-] |
| 170 | 435 |  | O=C(CC(CSc1ccccc1F)C(=O)O)c1ccc(-c2ccc(Cl)cc2)cc1 (stereo not drawn) [Example 218, [1,1'-Biphenyl]-4-butanoic acid, 4'-chloro-α-[[(2-fluorophenyl)thio]methyl]-γ-oxo-] |
| 140 | 510 |  | O=C(CC(COCc1ccccc1)C(=O)O)c1ccc(-c2ccc(Cl)cc2)cc1 (stereo not drawn) [Example 192, [1,1'-Biphenyl]-4-butanoic acid, 4'-chloro-γ-oxo-α-[(phenylmethoxy)methyl]-] |
| 140 | 1050 |  | O=C(CC(CSc1ccc(F)cc1)C(=O)O)c1ccc(-c2ccc(Cl)cc2)cc1 (stereo not drawn) [Example 208, [1,1'-Biphenyl]-4-butanoic acid, 4'-chloro-α-[[(4-fluorophenyl)thio]methyl]-γ-oxo-] |
| 87 | 170 |  | O=C(CC(CSCCc1ccccc1)C(=O)O)c1ccc(-c2ccc(Cl)cc2)cc1 (stereo not drawn) [Example 205, [1,1'-Biphenyl]-4-butanoic acid, 4'-chloro-γ-oxo-α-[[(2-phenylethyl)thio]methyl]-] |
| 83 | 245 |  | O=C(CC(CSc1ccccc1CO)C(=O)O)c1ccc(-c2ccc(Cl)cc2)cc1 (stereo not drawn) [Example 217, [1,1'-Biphenyl]-4-butanoic acid, 4'-chloro-α-[[[2-(hydroxymethyl)phenyl]thio]methyl]-γ-oxo-] |
